What all share (assay type): cell-based, mouse
Assay [1] has as its system melanoma cells. Kind of assay: Cell wounding / wound healing. The settings on record: 2% methyl sulfone. The protocol: Cells were cultured to approximately 90% confluence in 35 mm tissue culture plates. Methyl sulfone (2%) was added to half the plates and 48 hours later cells were wounded with a sterile plastic 1000 μl pipette tip. Cells were washed two times with medium to remove cell debris and incubated at 37° C. over night in RMPI medium +/−2% methyl sulfone. After 72 hours, wound edges were photographed and recorded with a Nikon TE300 inverted microscope (Nikon) equipped with a 10×0.25 NA Plan Achromat objective lens. Time-series (5 min long) of phase contrast images were acquired at a video rate (1 frame/3s) with a Watec-902B CCD video camera (Watec Corp., Japan) via stream acquisition option of Metamorph image acquisition and analysis software (Universal Imaging Corp., Downington, Pa.). During the recordings, cells were kept at 37° C. and 10 mM Hepes. Time series and photographs of cells +/−2% methyl sulfone were obtained every 24 hours for up to 120 hrs.
We tested whether melanoma cells treated with 2% methyl sulfone would function properly in the process of wound healing. As described in herein, control melanoma cells and cells treated with 2% methyl sulfone were grown to confluence. Scraping a layer of confluent cells with a plastic pipette tip formed wounds. Live cell video microscopy was used to monitor migration of cells into the wound.

In assay [2] the test system is actin filaments in melanoma cells. Kind of assay: Immunofluorescence of actin filaments. The settings on record: 2% methyl sulfone, 72 hours. The protocol: Cells were plated onto 10-well slides ( ) that were pre-treated with sulfuric acid. After 24 hours, medium was removed and 2% methyl sulfone in medium was added to half the slides; control cells received medium alone. At 72 and 144 hours, cells were washed in 37° C. PBS, pH 7.4, and fixed in 3.7% formaldehyde in PBS for 10 minutes. PBS was used to wash cells three times followed by a wash in 0.1% Triton X-100/PBS for 5 minutes. Cells were again washed three times in PBS, then in 1% BSA/PBS for 20 minutes. Cells were incubated with Rhodamine-labeled Phalloidin (Molecular Probes, Eugene, Oreg.; diluted 1/40 in 1% BSA/PBS) for 20 minutes. After washing three times in PBS, SlowFade was added to each well. Glass coverslips were placed over each slide and sealed with nail polish. Images were visualized using 568-nm excitation on a Perkin Elmer Ultraview RS5 spinning-disk confocal scanning system mounted on a Nikon TE2000 inverted microscope with a 100×1.4 NA Plan Apo oil immersion objective. (William A. Mohler, Ph.D., Director, Spinning Disk Microscope Facility, University of Connecticut Health Center).

In assay [3] the test system is microtubules in melanoma cells. Kind of assay: Immunofluorescence of microtubules, incl. vinblastine stability test. The protocol:
Cells were plated in 6-100 mm tissue culture plates, each containing 1 polylysine-coated 10-well slide, or plated onto polylysine-coated coverslips. Once cells were approximately 50% confluent, 2% methyl sulfone was added to cells for 10, 30, 60, 90, and 120 minutes. At each time point cells were placed in microtubule stabilizing buffer ( ) for 10 minutes followed by incubation in −20° C. methanol for 5 minutes. Cells were washed twice in 0.1% Triton X-100 in PBS at room temperature, then incubated with mouse monoclonal anti-alpha-tubulin antibody (Santa Cruz Biotech, Calif.; diluted 1/200 in 1% BSA/PBS) for 1.5 hours. Cells were washed 5 times in 0.1% Triton X-100/PBS, 3 minutes each. Cells were incubated with secondary antibody (Alexa Fluor 568 rabbit anti-mouse antibody; diluted 1/100 in 1%/PBS) for 30 minutes in the dark. Cells were washed five times in 0.1% Triton X-100/PBS, three minutes each. Cells were washed two times in PBS at 2 minute intervals and incubated with DAPI (1 μg/ml in PBS) for 5 minutes at room temperature and in the dark. Cells were washed in PBS for one minute. SlowFade was added to glass slides, coverslips were placed cell side down and sealed with nail polish. Microtubules were viewed at the Center for Cell Analysis and Modeling, University of Connecticut Health Center, Farmington, Conn., with an Axioplan CCD Microscope equipped with a 40×1.3 NA FL objective lens and Photometrics PXL-EEV37 high speed digital cooled CCD camera via Metamorph image acquisition and analysis software (Universal Imaging Corp., Downington, Pa.).
One assay to test stability of microtubules is to give cells increasing concentrations of a microtubule-disassembly drug and use immunofluorescence microscopy to assess microtubule lengths (Caron et al). A higher concentration of drug will be required to disassemble the more stabilized microtubules. We used different concentrations of the anti-microtubule drug, vinblastine, to assess microtubule stability in control cells and cells incubated with 2% methyl sulfone.

Assay [4] relates to melanoma cells. Kind of assay: Cell invasion assay (Transwell, ECM gel). The settings on record: 2% methyl sulfone. The protocol: Invasion assays were performed in Transwell chambers (Corning). The 8 μm pore membranes of the upper chambers were coated with ECM gel from Engelbreth-Holm-Swarm murine sarcoma (Sigma), diluted 1:6 with RPMI medium +/−2% methyl sulfone, and placed in a well with RPMI medium +/−2% methyl sulfone. Cells (1×10^5 cells/200 μl) were seeded into appropriate upper chambers in RMPI medium+/−2% methyl sulfone. After 20 hours of incubation at 37° C., cells were removed from top surface of the chamber and filters were fixed with 5% glutaraldeyde. Cells on the lower surface of the filter were stained with a 0.5% solution of toluidine blue. Membranes of inserts were removed with a razor, mounted between a glass slide and a coverslip, and held in place with scotch tape. Cells were photographed and counted at the Center for Cell Analysis and Modeling, University of Connecticut Health Center, Farmington, Conn., with an Axioplan CCD Microscope equipped with a 40×1.3 NA FL objective lens and high speed digital cooled CCD camera via Metamorph image acquisition and analysis software (Universal Imaging Corp., Downington, Pa.). All assays were performed in triplicate.
A second classic characteristic of metastatic cells is their ability to migrate through an extracellular matrix. We determined whether methyl sulfone altered this ability in melanoma cells. […]

One substance from US10363229B2, “Methods and compositions for the treatment of cancer” (priority 2009, dated 2019) can be followed below.

On to methyl sulfone, for which, in the assay with melanoma cells [1], the “behaviour when the wound was covered” value was “stopped migrating and once again became contact inhibited”; the “rate of migration into the wound area” value is listed as “slower rate than control cells”. Also, the “distribution of actin filaments” value in assay [2] is “clearly visible at the cell surface in small protrusions that contacted neighboring cells”. In assay [3] (2% methyl sulfone), the “time to microtubule disassembly after adding drug” value was no more than 10 min. Moreover, the “microtubules in the presence of vinblastine (stability)” value in assay [3] (2% methyl sulfone plus 10^−7 M vinblastine) is listed as “clearly visible”. Also, in assay [3] (2% methyl sulfone, over the next two hours), the “pattern of microtubule reassembly” value is “re-appeared in an orderly pattern”. Also, the “cells that migrated through the extracellular matrix” value in the assay on melanoma cells [4] was “none and unable to pass through the membrane”.
